This is an account of results in patent publication US12479838B2, “D3 receptor agonist compounds; methods of preparation; intermediates thereof; and methods of use thereof” (THE UNITED STATES OF AMERICA, AS REPRESENTED BY THE …, priority 2019, dated 2025).

One experiment has as its target human D3R (Homo sapiens (Human), UniProt P35462). As to the kind of experiment: Radioligand competition binding vs. [3H]-(R)-(+)-7-OH-DPAT, hD3R. The settings on record: for D4R/D3R / D2R/D3R: ratio of Ki; for D2R/D3R: D3R selectivity over D2R.
Another experiment addresses hD3R (Homo sapiens (Human), UniProt P35462). As to the kind of experiment: Competition binding vs. antagonist [3H]-N-methylspiperone, D3R. The settings on record: read-out: hD3R Ki ± SEM; vs. antagonist [3H]-N-methylspiperone.
A further experiment concerns the target hD2LR (Homo sapiens (Human), UniProt P14416). The experiment in a line: Competition binding vs. antagonist [3H]-N-methylspiperone, D2R. Conditions: read-out: hD2LR Ki ± SEM.
The target of another experiment is human D2LR (Homo sapiens (Human), UniProt P14416). As to the kind of experiment: Radioligand competition binding vs. [3H]-(R)-(+)-7-OH-DPAT, hD2R.
A further experiment addresses hD1R (Homo sapiens (Human), UniProt P21728). As to the kind of experiment: Off-target competition binding vs. [3H]-SCH23390, hD1R. Conditions: read-out: hD1R Ki ± SEM.
The target of another experiment is hμOR (Homo sapiens (Human), UniProt P35372). As to the kind of experiment: Off-target competition binding vs. [3H]-DAMGO, hμOR. The settings on record: read-out: hμOR Ki ± SEM.
For the next experiment, the target named is human D4.4 (Homo sapiens (Human), UniProt P21917). As to the kind of experiment: Radioligand competition binding vs. [3H]-(R)-(+)-7-OH-DPAT, hD4R. Conditions: HEK293 cells stably expressing hD4R, read-out: D4R Ki ± SEM.
Setting [1] is: vs. [3H]-(R)-(+)-7-OH-DPAT, HEK293 cells stably expressing hD3R, read-out: D3R Ki ± SEM.
[2] abbreviates: vs. [3H]-(R)-(+)-7-OH-DPAT, HEK293 cells stably expressing hD2R, read-out: D2R Ki ± SEM.
Where [3] appears, read: vs. [3H]-(R)-(+)-7-OH-DPAT, HEK293, read-out: hD3R Ki ± SEM.
The mark [4] stands for this setting: vs. [3H]-(R)-(+)-7-OH-DPAT, HEK293, read-out: hD2LR Ki ± SEM.
Where [5] appears, read: vs. [3H]-DAMGO, HEK293 membranes, >100 = <50% inhibition at 100 μM.

Read-outs that look alike come from different tables or passages of the source. Some results are limits rather than exact numbers.

human D4.4, sequence (P21917 whole entry): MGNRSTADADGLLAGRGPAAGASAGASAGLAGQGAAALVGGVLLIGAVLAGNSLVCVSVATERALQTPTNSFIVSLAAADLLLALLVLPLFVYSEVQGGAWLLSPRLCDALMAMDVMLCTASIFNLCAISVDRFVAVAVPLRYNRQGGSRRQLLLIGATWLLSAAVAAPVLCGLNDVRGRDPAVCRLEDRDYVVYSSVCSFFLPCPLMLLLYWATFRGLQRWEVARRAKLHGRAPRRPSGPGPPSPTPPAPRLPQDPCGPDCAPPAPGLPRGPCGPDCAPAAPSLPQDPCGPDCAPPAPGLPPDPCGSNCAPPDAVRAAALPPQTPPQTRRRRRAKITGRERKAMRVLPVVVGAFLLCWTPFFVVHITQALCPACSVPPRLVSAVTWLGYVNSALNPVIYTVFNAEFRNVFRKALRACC
hD1R, sequence (P21728 whole entry): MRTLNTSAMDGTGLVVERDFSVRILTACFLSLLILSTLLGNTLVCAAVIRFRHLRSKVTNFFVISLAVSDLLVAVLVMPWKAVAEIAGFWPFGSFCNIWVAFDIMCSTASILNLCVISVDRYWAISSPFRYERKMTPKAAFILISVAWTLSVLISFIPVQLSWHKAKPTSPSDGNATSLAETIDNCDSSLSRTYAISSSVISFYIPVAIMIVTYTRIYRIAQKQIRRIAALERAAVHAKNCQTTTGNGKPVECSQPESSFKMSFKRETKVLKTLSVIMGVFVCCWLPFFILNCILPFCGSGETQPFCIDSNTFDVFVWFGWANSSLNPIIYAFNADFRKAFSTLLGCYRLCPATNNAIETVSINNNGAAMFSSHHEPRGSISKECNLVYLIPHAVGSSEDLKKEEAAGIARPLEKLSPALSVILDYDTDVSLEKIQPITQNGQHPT
human D2LR, sequence (P14416 whole entry): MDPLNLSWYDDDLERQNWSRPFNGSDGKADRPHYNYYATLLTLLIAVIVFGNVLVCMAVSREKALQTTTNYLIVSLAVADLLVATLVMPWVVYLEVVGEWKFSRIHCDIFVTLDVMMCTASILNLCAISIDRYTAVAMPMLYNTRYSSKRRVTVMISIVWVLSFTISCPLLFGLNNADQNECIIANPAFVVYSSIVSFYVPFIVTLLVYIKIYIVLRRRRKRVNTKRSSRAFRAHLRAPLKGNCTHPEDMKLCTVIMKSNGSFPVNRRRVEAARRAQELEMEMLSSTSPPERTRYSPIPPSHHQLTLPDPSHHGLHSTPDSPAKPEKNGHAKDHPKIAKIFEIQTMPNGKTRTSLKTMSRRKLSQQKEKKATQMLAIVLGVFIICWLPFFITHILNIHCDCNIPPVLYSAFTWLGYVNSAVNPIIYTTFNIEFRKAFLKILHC
hD2LR, sequence (P14416 whole entry): as above
hD3R, sequence (P35462 whole entry): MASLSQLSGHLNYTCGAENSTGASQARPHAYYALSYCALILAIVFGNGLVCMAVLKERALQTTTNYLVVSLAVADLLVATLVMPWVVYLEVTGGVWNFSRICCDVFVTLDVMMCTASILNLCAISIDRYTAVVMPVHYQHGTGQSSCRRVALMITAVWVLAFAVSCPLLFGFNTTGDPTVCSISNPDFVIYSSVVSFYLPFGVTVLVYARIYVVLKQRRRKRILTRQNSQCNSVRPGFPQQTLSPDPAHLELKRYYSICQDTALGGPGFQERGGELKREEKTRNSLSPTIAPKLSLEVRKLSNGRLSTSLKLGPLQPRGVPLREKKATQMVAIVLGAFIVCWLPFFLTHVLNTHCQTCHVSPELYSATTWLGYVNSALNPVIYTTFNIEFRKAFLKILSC
human D3R, sequence (P35462 whole entry): as above
hμOR, sequence (P35372 whole entry): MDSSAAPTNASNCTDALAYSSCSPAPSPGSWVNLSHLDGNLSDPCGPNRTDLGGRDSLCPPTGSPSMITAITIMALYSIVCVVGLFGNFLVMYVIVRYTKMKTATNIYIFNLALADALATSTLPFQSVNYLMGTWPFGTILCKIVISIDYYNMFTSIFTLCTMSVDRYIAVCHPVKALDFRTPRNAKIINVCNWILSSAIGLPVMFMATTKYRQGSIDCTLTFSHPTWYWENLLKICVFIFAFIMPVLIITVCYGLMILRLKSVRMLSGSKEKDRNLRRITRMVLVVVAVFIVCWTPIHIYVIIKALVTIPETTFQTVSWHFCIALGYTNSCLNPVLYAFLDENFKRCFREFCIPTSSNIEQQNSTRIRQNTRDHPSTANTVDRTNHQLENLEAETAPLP

For `C[C@H]1CO[C@@H](c2ccc(N)nc2)CN1CC(=O)N1CCC(CNC(=O)c2cc3ccccc3[nH]2)C1` (stereo partly drawn) [AB07-80, N-((1-(2-((2S,5S)-2-(6-aminopyridin-3-yl)-5-methylmorpholino)acetyl)pyrrolidin-3-yl)methyl)-1H-indole-2-carboxamide], the Ki amounted to 2010 nM on human D3R (setting [1]), 2410 ± 287 nM on hD3R, 7930 ± 1190 nM at hD2LR and 1840 nM at human D2LR (setting [2]).

For `O=C(NCCCCN1CCOC2c3cc(O)ccc3OC[C@@H]21)c1cc2ccccc2[nH]1` (stereo in doubt) [rel-cis-12], the Ki at hD1R was over 100000 nM; on human D3R (setting [3]) it was 13800 nM; on hμOR, 12300 ± 2880 nM; on human D2LR (setting [4]), 9420 ± 3440 nM.

With `C[C@H]1CO[C@@H](c2ccc(N)nc2)CN1CC(O)CCNC(=O)c1cc2ccccc2[nH]1` (stereo partly drawn) [FOB02-67], the Ki at human D3R (setting [1]) is 423 ± 164 nM; on hμOR (setting [5]) it was 739 ± 70.1 nM; at human D2LR (setting [2]), 1010 ± 162 nM.

`CCCN1CC(c2ccc(N)nc2)OC[C@@H]1C` (stereo partly drawn) [AB03-02, reference compound]: the D4R/D3R at human D3R (vs. [3H]-(R)-(+)-7-OH-DPAT) amounted to 1.58. The D2R/D3R at human D3R (vs. [3H]-(R)-(+)-7-OH-DPAT) came to 9.41. Further, the figures for the Ki at human D3R (setting [1]), at human D4.4 and at human D2LR (setting [4]) were 185 ± 20.5 nM, 292 ± 22.2 nM and 1740 ± 348 nM, respectively.

Consider `C[C@H]1COC(c2ccc(N)nc2)CN1CCCCOc1ccc2c(c1)NC(=O)CC2` (stereo partly drawn) [AB04-35, 7-(4-((5S)-2-(6-aminopyridin-3-yl)-5-methylmorpholino)butoxy)-3,4-dihydroquinolin-2(1H)-one], for which the D4R/D3R on human D3R (vs. [3H]-(R)-(+)-7-OH-DPAT) worked out at 18.6. Besides, at human D3R (vs. [3H]-(R)-(+)-7-OH-DPAT), the D2R/D3R was 0.653. The Ki turned out to be 173 ± 48.2 nM at human D3R (setting [1]), 3220 nM on human D4.4 and 113 ± 22.7 nM on human D2LR (setting [2]).

As to `C[C@H]1CO[C@@H](c2ccc(N)nc2)CN1C/C=C1\CCC(CNC(=O)c2cc3ccccc3[nH]2)C1` (stereo partly drawn) [FOB04-02], the Ki turned out to be 7.41 ± 0.323 nM on human D3R (setting [1]), 104 ± 7.65 nM at hD3R, 7920 ± 772 nM at hD2LR and 55.9 ± 4.78 nM at human D2LR (setting [2]).

With `CCCN(CCC)c1ccc(C2CN(CCC)[C@@H](C)CO2)cn1` (stereo partly drawn) [AB04-52, 5-((5S)-5-methyl-4-propylmorpholin-2-yl)-N,N-dipropylpyridin-2-amine], the D4R/D3R at human D3R (vs. [3H]-(R)-(+)-7-OH-DPAT) is on record as over 4.74. At human D3R (vs. [3H]-(R)-(+)-7-OH-DPAT), the D2R/D3R is 0.391. In addition, the inhibition constant Ki at human D3R (setting [1]) is 21100 nM; at human D4.4, over 100000 nM; on human D2LR (setting [2]) it was 8240 nM.

`CCCN1CCO[C@@H]2c3cc(O)ccc3OC[C@H]21` [(+)-PD128,907, (4aR,10bR)-4-propyl-3,4,4a,10b-tetrahydro-2H,5H-chromeno[4,3-b][1,4]oxazin-9-ol, reference compound]: on human D3R (vs. [3H]-(R)-(+)-7-OH-DPAT), the D4R/D3R is on record as 15.7. At human D3R (vs. [3H]-(R)-(+)-7-OH-DPAT), the D2R/D3R stood at 12.1. Besides, the figures for the Ki at human D3R (setting [1]), on human D4.4 and at human D2LR (setting [2]) were 1.69 ± 0.0892 nM, 26.6 ± 3.97 nM and 20.5 ± 2.87 nM, respectively.

As to `CCCN1CCO[C@H]2c3cc(O)ccc3OC[C@@H]21` [(−)-(4aS,10bS)-2, reference compound], the Ki was over 100000 nM on hD1R, 5620 nM at human D3R (setting [3]), 77900 ± 41400 nM at hμOR (setting [5]) and 7580 ± 2620 nM at human D2LR (setting [4]). Besides, the “loss of D3R affinity relative to (+)-(4aR,10bR)-2” value at human D3R (vs. [3H]-(R)-(+)-7-OH-DPAT) is recorded as over 3000 fold.

On to `C[C@H]1CO[C@@H](c2ccc(N)nc2)CN1CCn1cc(CNC(=O)c2cc3ccccc3[nH]2)nn1` [AB08-03, N-((1-(2-((2S,5S)-2-(6-aminopyridin-3-yl)-5-methylmorpholino)ethyl)-1H-1,2,3-triazol-4-yl)methyl)-1H-indole-2-carboxamide], for which the Ki at hD3R was found to be 2780 ± 1020 nM; on hD2LR it was 32300 ± 12700 nM.

Consider `CCCN1CCO[C@@H]2c3cc(O)ccc3OC[C@H]21` [(+)-(4aR,10bR)-2, reference compound], for which the Ki was over 100000 nM on hD1R, 1.67 ± 0.257 nM at human D3R (setting [3]), 36600 ± 19800 nM on hμOR (setting [5]) and 28 ± 5.59 nM on human D2LR (setting [4]).

As to `C[C@H]1CO[C@H](c2ccc(N)nc2)CN1CCCCOc1ccc2c(c1)NC(=O)CC2` [AB04-95, 7-(4-((2R,5S)-2-(6-aminopyridin-3-yl)-5-methylmorpholino)butoxy)-3,4-dihydroquinolin-2(1H)-one], on human D3R (vs. [3H]-(R)-(+)-7-OH-DPAT), the D2R/D3R worked out at 0.110. Also, the results for the Ki on human D3R (setting [1]) and on human D2LR (setting [2]) were 24200 nM and 2660 nM, respectively.

With `CCCN1CCO[C@@H]2c3cc(O)ccc3OC[C@@H]21` (racemic) [(±)-cis-2, reference compound], the Ki at human D3R and on human D2LR was over 10000 nM in each case.
